Like-named read-outs stand apart in the source and are kept apart here.
Key:
[1] = biological target: T1, Purified recombinant matriptase (Homo sapiens, UniProt Q9Y5Y6); assay: Matriptase fluorescence-based enzymatic assay (Boc-Gln-Ala-Arg-AMC cleavage); assay type: biochemical
T1 sequence (Q9Y5Y6 1-855): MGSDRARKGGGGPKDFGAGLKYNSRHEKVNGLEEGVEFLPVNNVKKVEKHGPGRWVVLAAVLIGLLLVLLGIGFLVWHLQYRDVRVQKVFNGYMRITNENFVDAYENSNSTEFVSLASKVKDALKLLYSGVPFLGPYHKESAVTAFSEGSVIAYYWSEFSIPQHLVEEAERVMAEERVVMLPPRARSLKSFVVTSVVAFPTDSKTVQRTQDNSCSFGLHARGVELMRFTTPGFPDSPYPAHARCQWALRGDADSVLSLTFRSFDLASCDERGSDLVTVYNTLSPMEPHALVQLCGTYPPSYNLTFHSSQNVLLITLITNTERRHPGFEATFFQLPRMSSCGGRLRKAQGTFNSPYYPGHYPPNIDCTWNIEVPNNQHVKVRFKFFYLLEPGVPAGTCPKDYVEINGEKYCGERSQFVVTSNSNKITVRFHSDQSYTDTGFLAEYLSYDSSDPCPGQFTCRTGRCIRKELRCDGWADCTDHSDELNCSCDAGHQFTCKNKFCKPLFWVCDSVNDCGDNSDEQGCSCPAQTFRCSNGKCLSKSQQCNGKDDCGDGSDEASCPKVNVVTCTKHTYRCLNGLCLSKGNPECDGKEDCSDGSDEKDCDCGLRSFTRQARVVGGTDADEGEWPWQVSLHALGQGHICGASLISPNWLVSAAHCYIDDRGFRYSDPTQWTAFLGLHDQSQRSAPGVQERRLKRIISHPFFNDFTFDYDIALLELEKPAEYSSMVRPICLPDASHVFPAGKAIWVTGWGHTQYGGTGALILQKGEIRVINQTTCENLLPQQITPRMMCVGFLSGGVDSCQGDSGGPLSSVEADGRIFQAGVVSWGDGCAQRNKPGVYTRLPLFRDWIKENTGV
Excerpt: (§1) Purified recombinant matriptase was used in a fluorescence-based screening assay using Gln-Ala-Arg peptide as a substrate. In this assay the cleavage of AMC from Boc-Gln-Ala-Arg-7-amido-4 methylcoumarin hydrochloride (Boc-Gln-Ala-Arg-AMC) (Sigma, USA) was monitored by measuring the increase in fluorescence intensity of AMC released upon proteolytic cleavage at 480 nm (kex=360 nm). Similarly, enzymatic assays in fluorimetric or colorimetric format for uPA, Factor Xa, thrombin, plasmin and trypsin (Sigma, USA) were established using substrates pyroGlu-Gly-Arg-pNA.HCl, Boc-Gln-Ala-Arg-AMC, CH3OCO-D-CHA-Gly-Arg-PNA.AcoH, Pyro Glu-Phe-Lys—pNA.HCl and Boc-Gln-Ala-Arg-AMC, respectively.

uPA = biological target: T2, uPA (Homo sapiens, UniProt P00749); assay: uPA enzymatic assay (selectivity screening); assay type: biochemical; conditions: for uPA Inhibition (%): % Inhibition at 5 μM
T2 construct: purchased Sigma, USA
Excerpt: as §1

Factor Xa = biological target: T3, Factor Xa (Homo sapiens, UniProt P00742); assay: Factor Xa enzymatic assay (selectivity screening); assay type: biochemical; conditions: for Factor Xa Inhibition (%): % Inhibition at 5 μM
T3 construct: uPA, Factor Xa, thrombin, plasmin and trypsin (Sigma, USA); purchased Sigma, USA
T3 sequence (P00742 235-488 limits assumed): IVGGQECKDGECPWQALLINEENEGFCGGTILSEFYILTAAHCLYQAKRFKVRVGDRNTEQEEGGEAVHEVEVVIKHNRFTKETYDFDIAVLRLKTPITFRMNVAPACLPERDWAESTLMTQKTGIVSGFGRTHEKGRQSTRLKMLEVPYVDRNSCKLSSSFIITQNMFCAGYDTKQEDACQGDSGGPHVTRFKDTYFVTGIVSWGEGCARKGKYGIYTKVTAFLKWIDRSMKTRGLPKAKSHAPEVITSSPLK
T3 sequence (P00742 41-179 partner limits assumed): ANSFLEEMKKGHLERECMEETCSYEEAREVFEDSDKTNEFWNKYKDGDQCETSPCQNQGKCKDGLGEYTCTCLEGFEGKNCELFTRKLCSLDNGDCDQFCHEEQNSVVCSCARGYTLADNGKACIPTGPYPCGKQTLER
Excerpt: as §1

thrombin = biological target: T4, thrombin (Homo sapiens, UniProt P00734); assay: Thrombin enzymatic assay (selectivity screening); assay type: biochemical; conditions: for Thrombin Inhibition (%): % Inhibition at 5 μM
T4 construct: uPA, Factor Xa, thrombin, plasmin and trypsin (Sigma, USA); purchased Sigma, USA
Excerpt: as §1

plasmin = biological target: T5, plasmin (Homo sapiens, UniProt P00747); assay: Plasmin enzymatic assay (selectivity screening); assay type: biochemical; conditions: for Plasmin Inhibition (%): % Inhibition at 5 μM
T5 construct: uPA, Factor Xa, thrombin, plasmin and trypsin (Sigma, USA); purchased Sigma, USA
T5 sequence (P00747 581-810 limits assumed, species assumed): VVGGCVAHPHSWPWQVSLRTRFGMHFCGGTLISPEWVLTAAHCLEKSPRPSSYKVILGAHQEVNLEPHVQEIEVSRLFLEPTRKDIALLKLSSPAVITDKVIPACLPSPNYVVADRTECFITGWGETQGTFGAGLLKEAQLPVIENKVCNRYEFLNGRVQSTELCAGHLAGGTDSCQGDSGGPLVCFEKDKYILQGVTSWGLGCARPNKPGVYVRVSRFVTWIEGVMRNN
T5 sequence (P00747 97-580 partner limits assumed, species assumed): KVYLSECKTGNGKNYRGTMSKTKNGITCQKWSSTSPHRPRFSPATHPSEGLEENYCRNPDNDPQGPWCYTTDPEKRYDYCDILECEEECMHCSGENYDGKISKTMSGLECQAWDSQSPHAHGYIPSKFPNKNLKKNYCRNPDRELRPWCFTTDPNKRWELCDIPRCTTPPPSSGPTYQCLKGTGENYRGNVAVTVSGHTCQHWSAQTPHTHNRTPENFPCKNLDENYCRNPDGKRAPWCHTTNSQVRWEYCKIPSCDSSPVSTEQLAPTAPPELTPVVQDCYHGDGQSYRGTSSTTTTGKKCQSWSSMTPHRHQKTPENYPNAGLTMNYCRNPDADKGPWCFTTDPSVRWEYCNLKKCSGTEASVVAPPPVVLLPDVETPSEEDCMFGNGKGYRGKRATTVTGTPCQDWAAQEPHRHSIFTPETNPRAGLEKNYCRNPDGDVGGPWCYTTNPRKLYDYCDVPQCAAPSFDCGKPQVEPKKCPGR
Excerpt: as §1

trypsin = assay: Trypsin enzymatic assay (selectivity screening); assay type: biochemical; conditions: % Inhibition at 5 μM
Excerpt: as §1

DU145 cells [2] = assay: Cytotoxicity, Calcein AM assay, DU145; assay type: cell-based; conditions: four days of incubation; for viability at 10 µM: Homo sapiens, DU-145, 96 h, read-out: Cell survival at 10 μM (%)
Experimental: Cytotoxicity of the compounds was tested in cell lines or primary cells using Calcein AM assay. This assay measures cell viability by quantitation of cleaved fluorescent product of a cell permeable substrate that is retained in the cytoplasm of cells with uncompromised cytoplasmic membrane integrity. The cells were seeded into 96-well plate and allowed to adhere for a day followed by addition of compound at several different concentrations. After four days of incubation with the compound, media was removed from the cells followed by addition of PBS and addition of Calcein AM reagent at 1 μM final concentration. The cells were then allowed to incubate at 37° C. for half an hour followed by reading on the fluorimeter. Percent viability was calculated based on fluorescence value obtained at 485/520 nm with cut off at 495 nm.

DU145 cells [3] = assay: Migration assay in transwell chambers; assay type: cell-based; conditions: for inhibition at 10 µM: Homo sapiens, DU-145, 24 hours
Experimental: Migration assays were performed to determine the effect of matriptase inhibitors on cell motility. Cells were seeded with 10 μM test compound into transwell chambers and allowed to migrate for 24 hours using a combination of 10% FBS and 5 μg/ml fibronectin as chemoattractant.

DU145 cells [4] = assay: Cell invasion assay (matrigel transwell); assay type: cell-based; conditions: for inhibition at 10 µM: Homo sapiens, DU-145, 48 hours
Experimental: Cell invasion assays were done for quantitating the degree to which invasive cells penetrate a barrier essentially as in migration assay but with the use of matrigel consisting of basement membrane components in the transwell inserts and incubating for 48 hours. The barrier used was matrigel. This was followed by fixing and staining of the transwell insert with 0.5% crystal violet in 25% methanol in order to visualize cells migrated.

[5] = Table 1, read-out: Matriptase Inhibition IC50
[6] = Table 2, read-out: Matriptase IC50

Row | Molecule | IC50 [1, 5] | inhibition at 5 µM (uPA) | inhibition at 5 µM (Factor Xa) | inhibition at 5 µM (thrombin) | inhibition at 5 µM (plasmin) | Trypsin Inhibition (%) (trypsin) | IC50 [1, 6] | viability at 10 µM (DU145 cells [2]) | inhibition at 10 µM (DU145 cells [3]) | inhibition at 10 µM (DU145 cells [4]) | uPA Inhibition (%) (uPA) | Factor Xa Inhibition (%) (Factor Xa) | Thrombin Inhibition (%) (thrombin) | Plasmin Inhibition (%) (plasmin) | Cell survival at 10 μM (%) (DU145 cells [2]) | Inhibition of migration at 10 μM (%) (DU145 cells [3]; 24 hours) | Inhibition of invasion at 10 μM (%) (DU145 cells [4]; 48 hours)
1 | N=C(N)c1ccc(Oc2cc(Oc3ccc(C(=N)N)cc3)cc(C(=O)OC3CCC(N)CC3)c2)cc1 (stereo not shown) [Example 103, 3,5-Bis-(4-carbamimidoyl-phenoxy)-benzoic acid 4-amino-cyclohexyl Ester] | 2 nM | 25% | 92% | 44% | 58% | 92% |  |  |  |  |  |  |  |  |  |  | 
2 | N=C(N)c1ccc(COc2cc(Oc3ccc(C(=N)N)cc3)cc(C(=O)NC3CCC(N)CC3)c2)cc1 (stereo not shown) [Example 43, N-(4-Aminocyclohexyl)-3-(4-carbamimidoylbenzyloxy)-5-(4-carbamimidoylphenoxy)benzamide] | 16 nM | 7% | 76% | 45% | 33% |  |  |  |  |  |  |  |  |  |  |  | 
3 | N=C(N)CCCCOc1cc(Oc2ccc(C(=N)N)cc2)cc(C(=O)NC2CCC(N)CC2)c1 (stereo not shown) [Example 65, N-(4-Aminocyclohexyl)-3-(4-carbamimidoylbutoxy)-5-(4-carbamimidoyl-phenoxy)-benzamide] | 16.8 nM | 4% | 63% | 27% | 5% |  | 16 nM | 96% | 7% | 88% |  |  |  |  |  |  | 
4 | 2-[3,5-Bis-(4-carbanimidoyl-phenoxy)-benzoyl]-nonahydro-isoquinoline [Example 37] | 479 nM |  |  |  |  | 84% |  |  |  |  | 13% | 67% | 74% | 65% |  |  | 
5 | N=C(N)c1ccc(Oc2cc(OCc3ccc(CN)cc3)cc(C(=O)NC3CCC(N)CC3)c2)cc1 (stereo not shown) [Example 45, N-(4-Aminocyclohexyl)-3-(4-aminomethylbenzyloxy)-5-(4-carbamimidoylphenoxy)benzamide] | 48 nM | 6% | 47% | -12% | 21% |  |  |  |  |  |  |  |  |  |  |  | 
6 | N=C(N)c1cccc(COc2cc(NC(=O)C3CCC(N)CC3)cc(OCc3cccc(C(=N)N)c3)c2)c1 (stereo not shown) [Example 119, 4-Amino-cyclohexanecarboxylic acid[3,5-bis-(3-carbamimidoyl-benzyloxy)-phenyl]-amide] | 7 nM |  |  |  |  | 77% |  |  |  |  | 14% | 97% | 47% | 30% |  |  | 
7 | N=C(N)c1ccc(Oc2cc(Oc3ccc(CN)cc3)cc(C(=O)NC3CCC(N)CC3)c2)cc1 (stereo not shown) [Example 84, N-(4-Aminocyclohexyl)-3-(4-aminomethylphenoxy)-5-(4-carbamimidoylphenoxy)benzamide] | 63.4 nM | 5% | 5% | 36% | 10% |  | 63 nM | 100% | 80% | 92% |  |  |  |  |  |  | 
8 | 1-[3,5-Bis-(4-carbanimidoyl-phenoxy)-benzoyl]-nonahydro-quinoline [Example 35] | 313 nM |  |  |  |  |  | 312 nM |  |  |  | 10% | 69% | 67% | 69% | 78% | 18% | 75%
9 | N=C(N)c1ccc(Oc2cc(NC(=O)C3CCN(CCO)CC3)cc(Oc3ccc(C(=N)N)cc3)c2)cc1 [Example 111, 1-(2-Hydroxy-ethyl)-piperidine-4-carboxylic acid[3,5-bis-(4-carbamimidoyl-phenoxy)-phenyl]-amide] | 29 nM |  |  |  |  | 63% |  |  |  |  | 17% | 74% | 44% | 46% |  |  | 
10 | N=C(N)c1ccc(Oc2cc(OCc3cccc(C(=N)N)c3)cc(C(=O)NC3CCC(N)CC3)c2)cc1 (stereo not shown) [Example 42, N-(4-Aminocyclohexyl)-3-(3-carbamimidoylbenzyloxy)-5-(4-carbamimidoylphenoxy)benzamide] | 10 nM | 11% | 93% | 36% | 30% |  |  |  |  |  |  |  |  |  |  |  | 
11 | N=C(N)c1ccc(Oc2cc(OCc3cccc(C(=N)N)c3)cc(C(=O)N3CCC(CCN)CC3)c2)cc1 [Example 57, 2-{1-[3-(3-Carbamimidoyl-benzyloxy)-5-(4-carbamimidoyl-phenoxy)-benzoyl]-piperidin-4-yl}-ethylamine] | 29 nM | 10% | 94% | 57% | 50% | 74% |  |  |  |  |  |  |  |  |  |  | 
12 | N=C(N)c1ccc(Oc2cc(Oc3ccc(C(=N)N)cc3Cl)cc(C(=O)NC3CCC(N)CC3)c2)cc1 (stereo not shown) [Example 69, N-(4-Aminocyclohexyl)-3-(4-carbamimidoyl-2-chlorophenoxy)-5-(4-carbamimidoylphenoxy)benzamide] | 18.9 nM | 9% | 81% | 26% | 22% |  |  |  |  |  |  |  |  |  |  |  | 
13 | N=C(N)c1cc(F)c(Oc2cc(Oc3ccc(CN)cc3)cc(C(=O)NC3CCC(N)CC3)c2)c(F)c1 (stereo not shown) [Example 87, N-(4-Amino-cyclohexyl)-3-(4-aminomethyl-phenoxy)-5-(4-carbamimidoyl-2,6-difluoro-phenoxy)-benzamide] |  |  |  |  |  |  | 158 nM | 113% | 47% | 88% |  |  |  |  |  |  | 
14 | N=C(N)c1ccc(Oc2cc(Oc3ccc(C(=N)N)cc3)cc(C(=O)N3CCN(CCN)CC3)c2)cc1 [Example 31, 2-{4-[3,5-Bis-(4-carbamimidoyl-phenoxy)-benzoyl]-piperazin-1-yl}-ethylamine] | 88 nM | 5% | 94% | 61% | 40% |  |  |  |  |  |  |  |  |  |  |  | 
15 | N=C(N)c1cccc(COc2cc(OCc3cccc(C(=N)N)c3)cc(C(=O)NC3CCC(N)CC3)c2)c1 (stereo not shown) [Example 77, N-(4-Aminocyclohexyl)-3,5-bis-(3-carbamimidoyl Benzyloxy)benzamide] | 5 nM | 11% | 96% | 76% | 22% |  |  |  |  |  |  |  |  |  |  |  | 
16 | N=C(N)CCCCCOc1cc(Oc2ccc(C(=N)N)cc2)cc(C(=O)NC2CCC(N)CC2)c1 (stereo not shown) [Example 66, N-(4-Aminocyclohexyl)-3-(5-carbamimidoylpentyloxy)-5-(4-carbamimidoyl-phenoxy)-benzamide] | 16.1 nM | 3% | 43% | 21% | 5% |  | 16 nM | 87% | 88% | 95% |  |  |  |  |  |  | 
